According to patent US10428044B2, “3-amino-1,5,6,7-tetrahydro-4H-indol-4-ones” (Bayer Pharma Aktiengesellschaft, priority 2014, dated 2019):

molecular target: (recombinant) catalytic domain of human Bub1 (amino acids 704-1085) (Homo sapiens (Human), UniProt O43683); assay: Bub1 kinase assay (TR-FRET); format: biochemical; settings: ATP 10 μM final, peptide substrate 1 μM final, 60 min at 22° C., read-out: Biological Assay: Bub1 kinase assay median IC50
Method in brief: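 Compounds were serially diluted 1:3.4 from 2 mM DMSO stocks and incubated with the enzyme reaction for 60 min at 22° C. The reaction was stopped with EDTA, and biotinylated peptide phosphorylation was read by TR-FRET using Eu anti-mouse IgG, anti-phosphoserine antibody and streptavidin-XL665. IC50 was fitted by 4-parameter logistic to inhibition normalized to no-inhibitor and no-enzyme controls.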

Sequence of (recombinant) catalytic domain of human Bub1 (amino acids 704-1085) (O43683 704-1085): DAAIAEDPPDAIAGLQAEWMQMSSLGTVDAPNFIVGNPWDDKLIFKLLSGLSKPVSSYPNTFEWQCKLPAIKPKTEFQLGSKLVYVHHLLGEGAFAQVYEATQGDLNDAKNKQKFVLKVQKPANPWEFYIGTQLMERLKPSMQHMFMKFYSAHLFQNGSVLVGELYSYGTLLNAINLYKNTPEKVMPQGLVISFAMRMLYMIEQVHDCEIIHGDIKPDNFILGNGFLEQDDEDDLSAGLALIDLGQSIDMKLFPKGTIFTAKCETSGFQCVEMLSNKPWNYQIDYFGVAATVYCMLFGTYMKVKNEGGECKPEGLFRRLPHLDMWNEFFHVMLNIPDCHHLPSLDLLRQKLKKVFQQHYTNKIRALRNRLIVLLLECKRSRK

Point of comparison: `O=C(COC[C@@H]1CCCCO1)Nc1cc(-c2[nH]c3c(c2Nc2ccccc2)C(=O)CCC3)ccn1` [Example 343, N-{4-[4-oxo-3-(phenylamino)-4,5,6,7-tetrahydro-1H-indol-2-yl]pyridin-2-yl}-2-[(2S)-tetrahydro-2H-pyran-2-ylmethoxy]acetamide], IC50 8.45 nM. Against it:
- O=C(COCc1ccc(F)cc1)Nc1cc(-c2[nH]c3c(c2Nc2ccccc2)C(=O)CCC3)ccn1 [Example 341, 2-[(4-fluorobenzyl)oxy]-N-{4-[4-oxo-3-(phenylamino)-4,5,6,7-tetrahydro-1H-indol-2-yl]pyridin-2-yl}acetamide] — within 1.5-fold, 7.89 nM
- COc1ccc(COCC(=O)Nc2cc(-c3[nH]c4c(c3Nc3ccccc3)C(=O)CCC4)ccn2)cc1 [Example 342, 2-[(4-methoxybenzyl)oxy]-N-{4-[4-oxo-3-(phenylamino)-4,5,6,7-tetrahydro-1H-indol-2-yl]pyridin-2-yl}acetamide] — within 1.5-fold, 7.12 nM
- O=C(COc1ccsc1)Nc1cc(-c2[nH]c3c(c2Nc2ccccc2)C(=O)CCC3)ccn1 [Example 344, N-{4-[4-oxo-3-(phenylamino)-4,5,6,7-tetrahydro-1H-indol-2-yl]pyridin-2-yl}-2-(thiophen-3-yloxy)acetamide] — 2.3-fold higher, 19.8 nM
- O=C(COc1ccsc1Cl)Nc1cc(-c2[nH]c3c(c2Nc2ccccc2)C(=O)CCC3)ccn1 [Example 345, 2-[(2-chlorothiophen-3-yl)oxy]-N-{4-[4-oxo-3-(phenylamino)-4,5,6,7-tetrahydro-1H-indol-2-yl]pyridin-2-yl}acetamide] — 8.6-fold higher, 72.5 nM
- Cc1cc(OCC(=O)Nc2cc(-c3[nH]c4c(c3Nc3ccccc3)C(=O)CCC4)ccn2)no1 [Example 346, 2-[(5-methyl-1,2-oxazol-3-yl)oxy]-N-{4-[4-oxo-3-(phenylamino)-4,5,6,7-tetrahydro-1H-indol-2-yl]pyridin-2-yl}acetamide] — within 1.5-fold, 9.88 nM
- O=C(COc1ccccn1)Nc1cc(-c2[nH]c3c(c2Nc2ccccc2)C(=O)CCC3)ccn1 [Example 347, N-{4-[4-oxo-3-(phenylamino)-4,5,6,7-tetrahydro-1H-indol-2-yl]pyridin-2-yl}-2-(pyridin-2-yloxy)acetamide] — 12-fold higher, 101 nM
- O=C(COc1ccon1)Nc1cc(-c2[nH]c3c(c2Nc2ccccc2)C(=O)CCC3)ccn1 [Example 348, 2-(1,2-oxazol-3-yloxy)-N-{4-[4-oxo-3-(phenylamino)-4,5,6,7-tetrahydro-1H-indol-2-yl]pyridin-2-yl}acetamide] — within 1.5-fold, 10.2 nM
- Cc1noc(COCC(=O)Nc2cc(-c3[nH]c4c(c3Nc3ccccc3)C(=O)CCC4)ccn2)n1 [Example 349, 2-[(3-methyl-1,2,4-oxadiazol-5-yl)methoxy]-N-{4-[4-oxo-3-(phenylamino)-4,5,6,7-tetrahydro-1H-indol-2-yl]pyridin-2-yl}acetamide] — within 1.5-fold, 8.19 nM
- Cc1cc(COCC(=O)Nc2cc(-c3[nH]c4c(c3Nc3ccccc3)C(=O)CCC4)ccn2)on1 [Example 350, 2-[(3-methyl-1,2-oxazol-5-yl)methoxy]-N-{4-[4-oxo-3-(phenylamino)-4,5,6,7-tetrahydro-1H-indol-2-yl]pyridin-2-yl}acetamide] — within 1.5-fold, 6.53 nM
- Cn1nccc1COCC(=O)Nc1cc(-c2[nH]c3c(c2Nc2ccccc2)C(=O)CCC3)ccn1 [Example 351, 2-[(1-methyl-1H-pyrazol-5-yl)methoxy]-N-{4-[4-oxo-3-(phenylamino)-4,5,6,7-tetrahydro-1H-indol-2-yl]pyridin-2-yl}acetamide] — within 1.5-fold, 6.22 nM
- O=C(COCc1ccco1)Nc1cc(-c2[nH]c3c(c2Nc2ccccc2)C(=O)CCC3)ccn1 [Example 352, 2-(furan-2-ylmethoxy)-N-{4-[4-oxo-3-(phenylamino)-4,5,6,7-tetrahydro-1H-indol-2-yl]pyridin-2-yl}acetamide] — within 1.5-fold, 6.68 nM
- Cc1nnc(COCC(=O)Nc2cc(-c3[nH]c4c(c3Nc3ccccc3)C(=O)CCC4)ccn2)o1 [Example 353, 2-[(5-methyl-1,3,4-oxadiazol-2-yl)methoxy]-N-{4-[4-oxo-3-(phenylamino)-4,5,6,7-tetrahydro-1H-indol-2-yl]pyridin-2-yl}acetamide] — 1.7-fold higher, 14.4 nM
- Cc1cc(COCC(=O)Nc2cc(-c3[nH]c4c(c3Nc3ccccc3)C(=O)CCC4)ccn2)no1 [Example 354, 2-[(5-methyl-1,2-oxazol-3-yl)methoxy]-N-{4-[4-oxo-3-(phenylamino)-4,5,6,7-tetrahydro-1H-indol-2-yl]pyridin-2-yl}acetamide] — within 1.5-fold, 6.57 nM
- Cc1cnc(COCC(=O)Nc2cc(-c3[nH]c4c(c3Nc3ccccc3)C(=O)CCC4)ccn2)o1 [Example 355, 2-[(5-methyl-1,3-oxazol-2-yl)methoxy]-N-{4-[4-oxo-3-(phenylamino)-4,5,6,7-tetrahydro-1H-indol-2-yl]pyridin-2-yl}acetamide] — within 1.5-fold, 6.45 nM
- Cc1nnc(COCC(=O)Nc2cc(-c3[nH]c4c(c3Nc3ccccc3)C(=O)CCC4)ccn2)s1 [Example 356, 2-[(5-methyl-1,3,4-thiadiazol-2-yl)methoxy]-N-{4-[4-oxo-3-(phenylamino)-4,5,6,7-tetrahydro-1H-indol-2-yl]pyridin-2-yl}acetamide] — within 1.5-fold, 7.91 nM
- CC(=O)Nc1cc(-c2[nH]c3c(c2Nc2ccccc2)C(=O)CC(C)(C)C3)ncn1 [Example 357, N-{6-[6,6-dimethyl-4-oxo-3-(phenylamino)-4,5,6,7-tetrahydro-1H-indol-2-yl]pyrimidin-4-yl}acetamide] — 360-fold higher, 3080 nM
- CNc1cc(-c2[nH]c3c(c2Nc2ccccc2)C(=O)CCC3)ccn1 [Example 358, 2-[2-(methylamino)pyridin-4-yl]-3-(phenylamino)-1,5,6,7-tetrahydro-4H-indol-4-one] — 130-fold higher, 1130 nM
- CC1(C)CC(=O)c2c([nH]c(-c3ccnc(NC4CCC4)c3)c2Nc2ccccc2)C1 [Example 359, 2-[2-(cyclobutylamino)pyridin-4-yl]-6,6-dimethyl-3-(phenylamino)-1,5,6,7-tetrahydro-4H-indol-4-one] — 25-fold higher, 208 nM
- CC1(C)CC(=O)c2c([nH]c(-c3ccnc(N4CCC4)c3)c2Nc2ccccc2)C1 [Example 360, 2-[2-(azetidin-1-yl)pyridin-4-yl]-6,6-dimethyl-3-(phenylamino)-1,5,6,7-tetrahydro-4H-indol-4-one] — 1500-fold higher, 12700 nM
- CC1(C)CC(=O)c2c([nH]c(-c3ccnc(NCC(F)(F)F)c3)c2Nc2ccccc2)C1 [Example 361, 6,6-dimethyl-3-(phenylamino)-2-{2-[(2,2,2-trifluoroethyl)amino]pyridin-4-yl}-1,5,6,7-tetrahydro-4H-indol-4-one] — 71-fold higher, 600 nM
- CC1(C)CC(=O)c2c([nH]c(-c3ccnc(NCCC(F)(F)F)c3)c2Nc2ccccc2)C1 [Example 362, 6,6-dimethyl-3-(phenylamino)-2-{2-[(3,3,3-trifluoropropyl)amino]pyridin-4-yl}-1,5,6,7-tetrahydro-4H-indol-4-one] — 46-fold higher, 392 nM
- CC(Nc1cc(-c2[nH]c3c(c2Nc2ccccc2)C(=O)CC(C)(C)C3)ccn1)C(F)F (stereo not drawn) [Example 363, 2-(2-{[1,1-difluoropropan-2-yl]amino}pyridin-4-yl)-6,6-dimethyl-3-(phenylamino)-1,5,6,7-tetrahydro-4H-indol-4-one] — 24-fold higher, 207 nM
- CC(C)Nc1cc(-c2[nH]c3c(c2Nc2ccccc2)C(=O)CCC3)ccn1 [Example 364, 3-(phenylamino)-2-[2-(propan-2-ylamino)pyridin-4-yl]-1,5,6,7-tetrahydro-4H-indol-4-one] — 59-fold higher, 502 nM
